Laboratory results: ChEMBL document CHEMBL1158022, “Norpregnane glycosides from a Thai soft coral, Scleronephthya pallida” (J Nat Prod, 1999)
Values after ≈ are worked out from the molar mass of the structure shown.

Experiments:
[1] = Cytotoxicity against BCA1 cells by SRB assay; format: functional; conditions: read-out: ED50 (the source's name)
Plasmodium falciparum = assay: Antimalarial activity against multidrug-resistant Plasmodium falciparum K1 by [3H]hypoxanthine uptake; format: functional, organism-based

SMILES	EC50 [1] [µg/mL]	EC50 (Plasmodium falciparum; Plasmodium falciparum, K1, read-out: EC50) [µg/mL]	EC50 (Plasmodium falciparum) [×10⁻⁷ g/ml]
C=C[C@H]1CC[C@H]2[C@@H]3CCc4cc(O[C@H]5O[C@H](C)[C@H](O)[C@H](O)[C@H]5O)ccc4[C@H]3CC[C@]12C	10 (≈ 23.3 µM)	1.5 (≈ 3.5 µM)	
CCN(CC)CCCC(C)Nc1ccnc2cc(Cl)ccc12.O=P(O)(O)O.O=P(O)(O)O (stereo not drawn) [CHLOROQUINE PHOSPHATE]			1.6
